According to ChEMBL document CHEMBL3232938, “Design, synthesis, and biological evaluation of dihydroartemisinin-fluoroquinolone conjugates as a novel type of potential antitubercular agents” (2014):
Values after ≈ are worked out from the molar mass of the structure shown.

Tests used:
Assay type in all cases: functional
[1] = system: Mycobacterium tuberculosis; assay: Antibacterial activity against multidrug-resistant 1 ug/ml Mycobacterium tuberculosis clinical isolate 1256 assessed as growth inhibition after 7 days by microtiter plate assay; conditions: isolate 1256, 168 h
[2] = system: Mycobacterium tuberculosis; assay: Antibacterial activity against multidrug-resistant 1 ug/ml Mycobacterium tuberculosis clinical isolate 1259 assessed as growth inhibition after 7 days by microtiter plate assay; conditions: isolate 1259, 168 h
[3] = system: Mycobacterium tuberculosis; assay: Antibacterial activity against multidrug-resistant 1 ug/ml Mycobacterium tuberculosis clinical isolate 1288 assessed as growth inhibition after 7 days by microtiter plate assay; conditions: isolate 1288, 168 h
[4] = system: Mycobacterium tuberculosis; assay: Antibacterial activity against multidrug-resistant 1 ug/ml Mycobacterium tuberculosis clinical isolate 930 assessed as growth inhibition after 7 days by microtiter plate assay; conditions: isolate 930, 168 h
[5] = system: Mycobacterium tuberculosis; assay: Antibacterial activity against multidrug-resistant 1 ug/ml Mycobacterium tuberculosis clinical isolate 1237 assessed as growth inhibition after 7 days by microtiter plate assay; conditions: isolate 1237, 168 h

Compound	MIC [1]	MIC [2]	MIC [3]	MIC [4]	MIC [5]
C[C@H]1[C@@H](OCCCNC2CCN(c3c(F)cc4c(=O)c(C(=O)O)cn(C5CC5)c4c3Cl)C2)O[C@@H]2O[C@@]3(C)CC[C@H]4[C@H](C)CC[C@@H]1[C@@]24OO3 (stereo not given in full)	16 µg/mL (≈ 23.2 µM)	2 µg/mL (≈ 2.9 µM)	0.125 µg/mL (≈ 0.181 µM)	4 µg/mL (≈ 5.8 µM)	2 µg/mL (≈ 2.9 µM)
C[C@H]1[C@@H](OCCNC2CCN(c3c(F)cc4c(=O)c(C(=O)O)cn(C5CC5)c4c3Cl)C2)O[C@@H]2O[C@@]3(C)CC[C@H]4[C@H](C)CC[C@@H]1[C@@]24OO3 (stereo not given in full)	16 µg/mL (≈ 23.7 µM)	2 µg/mL (≈ 2.96 µM)	0.125 µg/mL (≈ 0.185 µM)	4 µg/mL (≈ 5.92 µM)	2 µg/mL (≈ 2.96 µM)
C[C@H]1[C@@H](O)O[C@@H]2O[C@@]3(C)CC[C@H]4[C@H](C)CC[C@@H]1[C@@]24OO3 [ARTENIMOL]	> 16 µg/mL	> 16 µg/mL	> 16 µg/mL	> 16 µg/mL	> 16 µg/mL
NC1CCN(c2c(F)cc3c(=O)c(C(=O)O)cn(C4CC4)c3c2Cl)C1 (stereo not given) [CLINAFLOXACIN]	0.5 µg/mL (≈ 1.37 µM)	0.125 µg/mL (≈ 0.342 µM)	1 µg/mL (≈ 2.73 µM)	4 µg/mL (≈ 10.9 µM)	1 µg/mL (≈ 2.73 µM)
CCn1cc(C(=O)O)c(=O)c2cc(F)c(N3CCNCC3)cc21 [NORFLOXACIN]	16 µg/mL (≈ 50.1 µM)	2 µg/mL (≈ 6.26 µM)	> 16 µg/mL	> 16 µg/mL	> 16 µg/mL
O=C(O)c1cn(-c2ccc(F)cc2)c2cc(N3CCNCC3)c(F)cc2c1=O [SARAFLOXACIN]	16 µg/mL (≈ 41.5 µM)	4 µg/mL (≈ 10.4 µM)	> 16 µg/mL	> 16 µg/mL	> 16 µg/mL
